Test results: ChEMBL document CHEMBL6092217 (Eur J Med Chem, 2024)
pIC50, pKd: −log10 of the molar value.

Columns and labels:
MDA-MB-231 = assay: cells; settings: Homo sapiens, MDA-MB-231, 72 h
Description: Antiproliferative activity against human MDA-MB-231 cells assessed as cell viability incubated for 72 hrs by MTT assay

HT-29 [1] = assay: Induction of apoptosis in human HT-29 cells assessed as early apoptotic cells at 20 nM incubated for 24 hrs by FITC/PI staining based flow cytometry analysis (reference value: 8.14%); format: functional
HT-29 [2] = assay: Induction of apoptosis in human HT-29 cells assessed as necrotic cells at 20 nM incubated for 24 hrs by FITC/PI staining based flow cytometry analysis (reference value: 0.017 %); format: functional
PC-3 = assay: Antiproliferative activity against human PC-3 cells assessed as cell viability incubated for 72 hrs by MTT assay; format: functional, cell-based; settings: PC-3, 72 h
HT-29 [3] = assay: Induction of apoptosis in human HT-29 cells assessed as viable cells at 20 nM incubated for 24 hrs by FITC/PI staining based flow cytometry analysis (reference value: 91.6%); format: functional; settings: read-out: Activity
MCF7 = assay: Antiproliferative activity against human MCF7 cells assessed as cell viability incubated for 72 hrs by MTT assay; format: functional, cell-based; settings: MCF7, 72 h
RKO = assay: Antiproliferative activity against human RKO cells assessed as cell viability incubated for 72 hrs by MTT assay; format: functional, cell-based
HT-29 [4] = assay: Induction of cell cycle arrest in human HT-29 cells assessed as accumulation of cells at G2 phase at 10 nM incubated for 24 hrs by flow cytometry analysis (reference value: 13 %); format: functional
HepG2 = assay: Antiproliferative activity against human HepG2 cells assessed as cell viability incubated for 72 hrs by MTT assay; format: functional, cell-based; settings: HepG2, 72 h
HT-29 [5] = assay: Antiproliferative activity against human HT-29 cells assessed as cell viability incubated for 72 hrs by MTT assay; format: functional, cell-based; settings: HT-29, 72 h
HT-29 [6] = assay: Induction of cell cycle arrest in human HT-29 cells assessed as accumulation of cells at S phase at 10 nM incubated for 24 hrs by flow cytometry analysis (reference value: 20.8 %); format: functional
[7] = Resistance index, ratio of IC50 for human A549/TxR cells to IC50 for human A549 cells; format: functional
HT-29 [8] = assay: Induction of cell cycle arrest in human HT-29 cells assessed as accumulation of cells at G1 phase at 10 nM incubated for 24 hrs by flow cytometry analysis (reference value: 67.6%); format: functional
HT-29 [9] = assay: Induction of apoptosis in human HT-29 cells assessed as late apoptotic cells at 20 nM incubated for 24 hrs by FITC/PI staining based flow cytometry analysis (reference value: 0.20%); format: functional
Tubulin = assay: Inhibition of tubulin polymerization (unknown origin) in presence of GTP by fluorescence plate reader analysis; format: protein-complex assay, Homo sapiens
[10] = Binding affinity to porcine brain tubulin assessed as dissociation constant measured after 20 mins by fluorescence based analysis; set-up: species or system Sus scrofa

Row | pIC50 (MDA-MB-231) | pIC50 (PC-3) | pIC50 (MCF7) | pIC50 (HepG2) | pIC50 (HT-29 [5]) | pIC50 (Tubulin) | pKd [10] | Structure (SMILES) | Activity (HT-29 [1]) | Activity (HT-29 [2]) | viability at 0.02 µM (HT-29 [3]) | pIC50 (RKO) | Activity (HT-29 [4]) | Activity (HT-29 [6]) | Ratio IC50 [7] | Activity (HT-29 [8]) | Activity (HT-29 [9])
1 | 5.01 | 5.13 | < 5.00 | < 5.00 | < 5.00 | – | – | COc1ccc(N(C)c2nc(/C=C/c3cccc(Br)c3)nc3ccccc23)cc1 | – | – | – | < 5.00 | – | – | – | – | –
2 | < 5.00 | 5.08 | < 5.00 | < 5.00 | < 5.00 | – | – | COc1ccc(N(C)c2nc(/C=C/c3cc(OC)c(OC)c(OC)c3)nc3ccccc23)cc1 | – | – | – | < 5.00 | – | – | – | – | –

The remaining lines, values behind:

Row | Structure (SMILES) | pIC50 (MDA-MB-231) | pIC50 (PC-3) | pIC50 (MCF7) | pIC50 (HepG2) | pIC50 (HT-29 [5]) | pIC50 (Tubulin) | pKd [10] | Activity (HT-29 [1]) | Activity (HT-29 [2]) | viability at 0.02 µM (HT-29 [3]) | pIC50 (RKO) | Activity (HT-29 [4]) | Activity (HT-29 [6]) | Ratio IC50 [7] | Activity (HT-29 [8]) | Activity (HT-29 [9])
3 | CC(=O)O[C@H]1C(=O)[C@@]2(C)[C@H]([C@H](OC(=O)c3ccccc3)[C@]3(O)C[C@H](OC(=O)[C@H](O)[C@@H](NC(=O)c4ccccc4)c4ccccc4)C(C)=C1C3(C)C)[C@]1(OC(C)=O)CO[C@@H]1C[C@@H]2O [PACLITAXEL] | 7.66 | 7.55 | 7.43 | 7.44 | 7.89 | – | – | 5.4% | 1.32% | 70.6% | 8.52 | 22.6% | 15.1% | 11.29 | 60.2% | 22.7%
4 | COc1ccc(N(C)c2nc(/C=C/c3ccc(OC)cc3OC)nc3ccccc23)cc1 | 6.62 | 6.96 | 6.85 | 6.66 | 7.33 | < 5.00 | 4.36 | – | – | – | 6.92 | – | – | – | – | –
5 | CN(c1ccc(F)cc1)c1nc(/C=C/c2ccccc2)nc2ccccc12 | 5.55 | 5.95 | 5.97 | 6.04 | 6.28 | – | – | – | – | – | 6.27 | – | – | – | – | –
